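Five compound concentrations were applied to cells in 96-well plates for 48 hours; endpoints were derived by simple linear interpolation of the resulting dose-response curve. Here, GI50 denotes the concentration required for 50% inhibition of growth.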 Active and inactive are the calls of the source. No stated cut-off is given here; in the data, active = GI50 up to about 1.1 µM and inactive = higher.
Key:
Test in all cases: NCI anticancer screen, dose series, 48 h
A549 = tested on: A549
ACHN = tested on: ACHN
DLD-1 = tested on: DLD-1
HCC 2998 = tested on: HCC 2998
HCT-116 = tested on: HCT-116
K562 = tested on: K562
LXFL 529 = tested on: LXFL 529
M19-MEL = tested on: M19-MEL
OVCAR-3 = tested on: OVCAR-3
SK-MEL-5 = tested on: SK-MEL-5
SNB-78 = tested on: SNB-78
SW-620 = tested on: SW-620
UACC-257 = tested on: UACC-257
COLO 205 = tested on: COLO 205
NCI-H522 = tested on: NCI-H522
SNB-19 = tested on: SNB-19
SF-268 = tested on: SF-268
DU-145 = tested on: DU-145
MDA-MB-231 = tested on: MDA-MB-231
PC-3 = tested on: PC-3

Cc1ccc(S(=O)(=O)c2ccccc2[N+](=O)[O-])cc1
GI50 (A549): > 100 µM (inactive)
GI50 (ACHN): > 100 µM (inactive)
GI50 (DLD-1): > 100 µM (inactive)
GI50 (HCC 2998): > 100 µM (inactive)
GI50 (HCT-116): 66.8 µM (inactive)
GI50 (K562): 73.3 µM (inactive)
GI50 (LXFL 529): > 100 µM (inactive)
GI50 (M19-MEL): > 100 µM (inactive)
GI50 (OVCAR-3): > 100 µM (inactive)
GI50 (SK-MEL-5): 52.1 µM (inactive)
GI50 (SNB-78): > 100 µM (inactive)
GI50 (SW-620): > 100 µM (inactive)
GI50 (UACC-257): 72.6 µM (inactive)

CNS(=O)(=O)NN(C)S(=O)(=O)c1ccc2ccccc2c1
GI50 (A549): > 100 µM (inactive)
GI50 (ACHN): > 100 µM (inactive)
GI50 (COLO 205): > 100 µM (inactive)
GI50 (DLD-1): > 100 µM (inactive)
GI50 (HCC 2998): > 100 µM (inactive)
GI50 (HCT-116): > 100 µM (inactive)
GI50 (K562): > 100 µM (inactive)
GI50 (LXFL 529): > 100 µM (inactive)
GI50 (M19-MEL): > 100 µM (inactive)
GI50 (NCI-H522): > 100 µM (inactive)
GI50 (SK-MEL-5): > 100 µM (inactive)
GI50 (SNB-19): > 10 µM (inactive)
GI50 (SW-620): > 100 µM (inactive)
GI50 (UACC-257): > 100 µM (inactive)

CCCC(=O)N[C@@H](Cc1cc(I)c(O)c(I)c1)C(=O)NCCCNCCCCNCCCNC(=O)[C@@H](N)CCCN=C(N)N
GI50 (A549): > 100 µM (inactive)
GI50 (ACHN): 40.1 µM (inactive)
GI50 (COLO 205): 40.6 µM (inactive)
GI50 (HCC 2998): 42.3 µM (inactive)
GI50 (HCT-116): 67 µM (inactive)
GI50 (K562): 45.1 µM (inactive)
GI50 (LXFL 529): 78 µM (inactive)
GI50 (M19-MEL): 40.1 µM (inactive)
GI50 (NCI-H522): 11.2 µM (inactive)
GI50 (OVCAR-3): > 100 µM (inactive)
GI50 (SF-268): > 10 µM (inactive)
GI50 (SK-MEL-5): 36.6 µM (inactive)
GI50 (SNB-19): > 100 µM (inactive)
GI50 (SW-620): > 100 µM (inactive)
GI50 (UACC-257): > 100 µM (inactive)

O=C1CCCC/C1=C1\C(=O)Nc2cc(F)ccc21
GI50 (A549): > 100 µM (inactive)
GI50 (ACHN): > 100 µM (inactive)
GI50 (COLO 205): > 100 µM (inactive)
GI50 (DLD-1): > 100 µM (inactive)
GI50 (HCC 2998): > 100 µM (inactive)
GI50 (HCT-116): > 100 µM (inactive)
GI50 (K562): > 100 µM (inactive)
GI50 (LXFL 529): > 100 µM (inactive)
GI50 (M19-MEL): > 100 µM (inactive)
GI50 (NCI-H522): > 100 µM (inactive)
GI50 (SF-268): > 100 µM (inactive)
GI50 (SK-MEL-5): > 100 µM (inactive)
GI50 (SNB-19): > 100 µM (inactive)
GI50 (SNB-78): > 100 µM (inactive)
GI50 (SW-620): 35.3 µM (inactive)
GI50 (UACC-257): > 100 µM (inactive)

COc1c(Sc2ccccc2)cc(Sc2ccccc2)c2cccnc12
GI50 (A549): 24 µM (inactive)
GI50 (ACHN): 26.8 µM (inactive)
GI50 (COLO 205): 19.6 µM (inactive)
GI50 (DLD-1): 27.9 µM (inactive)
GI50 (HCC 2998): 41.9 µM (inactive)
GI50 (HCT-116): 28.9 µM (inactive)
GI50 (K562): 23.7 µM (inactive)
GI50 (LXFL 529): 30.8 µM (inactive)
GI50 (M19-MEL): 28.9 µM (inactive)
GI50 (OVCAR-3): 20.9 µM (inactive)
GI50 (SF-268): 37.3 µM (inactive)
GI50 (SK-MEL-5): 16.4 µM (inactive)
GI50 (SNB-19): 31.8 µM (inactive)
GI50 (SNB-78): 34 µM (inactive)
GI50 (SW-620): 39.2 µM (inactive)
GI50 (UACC-257): 18.2 µM (inactive)

O=C(N/N=C\c1cccc2c([N+](=O)[O-])cccc12)Nc1ccccc1
GI50 (A549): 10.3 µM (inactive)
GI50 (ACHN): 14.2 µM (inactive)
GI50 (COLO 205): 18.5 µM (inactive)
GI50 (DU-145): 26.9 µM (inactive)
GI50 (HCC 2998): 15.1 µM (inactive)
GI50 (HCT-116): 5.37 µM (inactive)
GI50 (K562): 5.85 µM (inactive)
GI50 (MDA-MB-231): 17.8 µM (inactive)
GI50 (NCI-H522): 14.6 µM (inactive)
GI50 (OVCAR-3): 14.2 µM (inactive)
GI50 (PC-3): 14.8 µM (inactive)
GI50 (SF-268): 21.6 µM (inactive)
GI50 (SK-MEL-5): 14.1 µM (inactive)
GI50 (SNB-19): 14.6 µM (inactive)
GI50 (SW-620): 13.2 µM (inactive)
GI50 (UACC-257): 19.5 µM (inactive)

COc1ccc(CN2CC(C)(C)C2=O)c(OC)c1
GI50 (A549): > 100 µM (inactive)
GI50 (ACHN): > 100 µM (inactive)
GI50 (COLO 205): > 100 µM (inactive)
GI50 (HCC 2998): > 100 µM (inactive)
GI50 (HCT-116): > 100 µM (inactive)
GI50 (K562): > 100 µM (inactive)
GI50 (M19-MEL): > 100 µM (inactive)
GI50 (NCI-H522): > 100 µM (inactive)
GI50 (OVCAR-3): > 100 µM (inactive)
GI50 (SF-268): > 100 µM (inactive)
GI50 (SK-MEL-5): > 100 µM (inactive)
GI50 (SNB-19): > 100 µM (inactive)
GI50 (SNB-78): > 100 µM (inactive)
GI50 (SW-620): > 100 µM (inactive)
GI50 (UACC-257): > 100 µM (inactive)

O=C1/C(=C/c2ccccc2)CN(C(=O)OCC(Cl)(Cl)Cl)C/C1=C\c1ccccc1
GI50 (A549): 5.02 µM (inactive)
GI50 (ACHN): 1.98 µM (inactive)
GI50 (COLO 205): 3.73 µM (inactive)
GI50 (DLD-1): 1.91 µM (inactive)
GI50 (HCT-116): 1.33 µM (inactive)
GI50 (K562): 1.32 µM (inactive)
GI50 (LXFL 529): 1.78 µM (inactive)
GI50 (M19-MEL): 1.39 µM (inactive)
GI50 (NCI-H522): 3.47 µM (inactive)
GI50 (OVCAR-3): 4.19 µM (inactive)
GI50 (SF-268): 3.81 µM (inactive)
GI50 (SK-MEL-5): 1.55 µM (inactive)
GI50 (SNB-19): 3.27 µM (inactive)
GI50 (SNB-78): 1.34 µM (inactive)
GI50 (SW-620): 1.09 µM (active)
GI50 (UACC-257): 2.09 µM (inactive)

OCCOCn1nncc1Cn1ncc2c(O)ncnc21
GI50 (A549): 97.9 µM (inactive)
GI50 (ACHN): > 100 µM (inactive)
GI50 (COLO 205): 97.7 µM (inactive)
GI50 (DU-145): 43.7 µM (inactive)
GI50 (HCC 2998): > 100 µM (inactive)
GI50 (HCT-116): > 100 µM (inactive)
GI50 (K562): 43.6 µM (inactive)
GI50 (MDA-MB-231): > 100 µM (inactive)
GI50 (NCI-H522): 60.8 µM (inactive)
GI50 (OVCAR-3): 28.6 µM (inactive)
GI50 (PC-3): 55.1 µM (inactive)
GI50 (SF-268): > 100 µM (inactive)
GI50 (SK-MEL-5): 47.5 µM (inactive)
GI50 (SNB-19): > 100 µM (inactive)
GI50 (SW-620): 31.8 µM (inactive)
GI50 (UACC-257): > 100 µM (inactive)

COc1ccc2cc3nc(O)cc(O)c3cc2c1OC
GI50 (A549): > 100 µM (inactive)
GI50 (ACHN): > 100 µM (inactive)
GI50 (HCC 2998): > 100 µM (inactive)
GI50 (HCT-116): > 100 µM (inactive)
GI50 (K562): > 100 µM (inactive)
GI50 (LXFL 529): > 100 µM (inactive)
GI50 (M19-MEL): > 100 µM (inactive)
GI50 (OVCAR-3): > 100 µM (inactive)
GI50 (SF-268): > 100 µM (inactive)
GI50 (SNB-19): > 100 µM (inactive)
GI50 (SNB-78): > 100 µM (inactive)
GI50 (SW-620): > 100 µM (inactive)
GI50 (UACC-257): > 100 µM (inactive)

COc1ccc(C2=NNC(=O)OC2c2ccccc2)cc1 (configuration not stated)
GI50 (A549): 51.5 µM (inactive)
GI50 (ACHN): > 100 µM (inactive)
GI50 (COLO 205): 78.2 µM (inactive)
GI50 (HCC 2998): 34.1 µM (inactive)
GI50 (HCT-116): > 100 µM (inactive)
GI50 (K562): 26.7 µM (inactive)
GI50 (LXFL 529): 70 µM (inactive)
GI50 (M19-MEL): 55.7 µM (inactive)
GI50 (OVCAR-3): 81.8 µM (inactive)
GI50 (SF-268): 72.6 µM (inactive)
GI50 (SNB-19): 67.1 µM (inactive)
GI50 (SNB-78): 95.7 µM (inactive)
GI50 (SW-620): 38.9 µM (inactive)
GI50 (UACC-257): 28.9 µM (inactive)

C/C(=N\NS(=O)(=O)c1ccccc1)c1ccc(Cl)c(Cl)c1
GI50 (A549): 46.2 µM (inactive)
GI50 (ACHN): 46.6 µM (inactive)
GI50 (COLO 205): 26.2 µM (inactive)
GI50 (DLD-1): 41.8 µM (inactive)
GI50 (HCC 2998): 71.1 µM (inactive)
GI50 (HCT-116): 50.9 µM (inactive)
GI50 (K562): 86.5 µM (inactive)
GI50 (LXFL 529): 34.5 µM (inactive)
GI50 (M19-MEL): 57.4 µM (inactive)
GI50 (OVCAR-3): 25.3 µM (inactive)
GI50 (SF-268): > 100 µM (inactive)
GI50 (SK-MEL-5): 42.5 µM (inactive)
GI50 (SNB-78): > 100 µM (inactive)
GI50 (SW-620): > 100 µM (inactive)
GI50 (UACC-257): 50 µM (inactive)

CCOc1ccc(NC(=O)CC2SC(Nc3ccc(C)cc3)=NC2=O)cc1 (configuration not stated)
GI50 (A549): > 100 µM (inactive)
GI50 (ACHN): > 100 µM (inactive)
GI50 (COLO 205): > 100 µM (inactive)
GI50 (DLD-1): > 100 µM (inactive)
GI50 (HCT-116): > 100 µM (inactive)
GI50 (LXFL 529): > 100 µM (inactive)
GI50 (M19-MEL): > 100 µM (inactive)
GI50 (NCI-H522): > 100 µM (inactive)
GI50 (OVCAR-3): > 100 µM (inactive)
GI50 (SF-268): > 100 µM (inactive)
GI50 (SK-MEL-5): > 100 µM (inactive)
GI50 (SNB-19): > 100 µM (inactive)
GI50 (SNB-78): > 100 µM (inactive)
GI50 (SW-620): > 100 µM (inactive)
GI50 (UACC-257): > 100 µM (inactive)

Nc1ncnc2c1N=CN(Oc1ccccc1)N2
GI50 (A549): > 100 µM (inactive)
GI50 (ACHN): > 100 µM (inactive)
GI50 (COLO 205): > 100 µM (inactive)
GI50 (DLD-1): > 100 µM (inactive)
GI50 (HCT-116): > 100 µM (inactive)
GI50 (K562): > 100 µM (inactive)
GI50 (LXFL 529): > 100 µM (inactive)
GI50 (M19-MEL): > 100 µM (inactive)
GI50 (OVCAR-3): > 100 µM (inactive)
GI50 (SK-MEL-5): > 100 µM (inactive)
GI50 (SNB-78): > 100 µM (inactive)
GI50 (SW-620): > 100 µM (inactive)
GI50 (UACC-257): > 100 µM (inactive)
